Laboratory results: US20160303137A1, “DUAL PI3K AND WNT PATHWAY INHIBITION AS A TREATMENT FOR CANCER” (Indiana University Research and Technology Corporation, priority 2015, published 2016)
Where two headings read alike, the source gives them in different places.

Tests used:
[1] = tested on: TNBC patient derived xenograft (PDX) (ID: BR0901); test: TNBC PDX study, survival; assay type: in vivo, NSG mice; settings: n=10 per group, once-a-day max 28 days; Buparlisib 30 mg/kg, WNT974 3 mg/kg
Experimental: NSG mice were trochar implanted in the right hind flank with a passage 1-4, 5 mm^3 TNBC patient derived xenograft (PDX) (ID: BR0901) at The Jackson Laboratory (The Jackson Laboratory, Bar Harbor, Maine). […] 40 TNBC PDX implanted mice were used (10 mice per group: Vehicle, Buparlisib (30 mg/kg), WNT974 (3 mg/kg), and Buparlisib+WNT974). Tumors were grown to an average of 70-150 mm^3 and mice averaged 22.5 grams body weight. Mice were dosed once-a-day for a maximum of 28 days. Tumor measurements were made two times a week. Mice whose tumors reached a size of 1500 mm^3 were euthanized per IACUC protocol.

[2] = tested on: phosphorylated-AKT (p-AKT Ser 473); test: Western blot of phospho-AKT in TNBC cell lines; assay type: cell-based; settings: MDA-MB-231, HCC70, HCC1143; 1 μM or 10 μM; 72 hours
Experimental: (§1) For Western Blot analysis, target modulation was assessed using qPCR for Axin2 (a marker of WNT974), and western blot for Porcupine and Phospho-Akt […] (a marker of Buparlisib activity). qPCR was performed using Taqman assays (Life Technologies). For western blotting, protein was isolated using RIPA buffer and quantified with BCA assay (Thermo Fisher). Protein was run on Bis-Tris gels (Life Technologies) and transferred to PVDF. Primary pAKT-[…] antibody (Cell Signaling Technology, Beverly, Mass.), β-actin (Cell Signaling Technology), and PORCN (Abcam, Cambridge, England) were incubated overnight with subsequent 1 hour incubation with HRP-conjugate secondary antibody. Staining was performed using a chemiluminescent substrate (ThermoFisher). Imaging was performed using an LAS-4000 Luminescent Image Analyzer (Fujifilm, Tokyo, Japan). Three TNBC cell lines: MDA-MB-231, HCC70, and HCC1143 were treated with either 0, 1 μM or 10 μM Buparlisib. After 72 hours, protein was isolated and PORCN and pAKT expression was observed.

AXIN2 RNA = test: Axin2 RNA qPCR on TMD-231 tumors (PD study); assay type: in vivo, NSG mice; settings: 7 days once-a-day; Buparlisib 30 mg/kg, WNT974 3 mg/kg
Experimental: as §1, with “Japan).” for “Japan). Three TNBC cell lines: MDA-MB-231, HCC70, and HCC1143 were treated with either 0, 1 μM or 10 μM Buparlisib. After 72 hours, protein was isolated and PORCN and pAKT expression was observed.”

Porcupine (PORCN) = test: Western blot of Porcupine in TNBC cell lines; assay type: cell-based; settings: MDA-MB-231, HCC70, HCC1143; 1 μM or 10 μM; 72 hours
Experimental: as §1

TMD-231 TNBC cells = test: Pharmacodynamic study, TMD-231 xenograft tumor volume; assay type: in vivo, NSG mice; settings: single agent, 7 days once-a-day; Buparlisib 30 mg/kg, WNT974 3 mg/kg
Experimental: For the pharmacodynamic studies, NSG mice were implanted with TMD-231 TNBC cells into the mammary fat pad of 24 NSG mice (6 mice per group: Vehicle, Buparlisib, WNT974, Buparlisib+WNT974). The TMD-231 cell line is a variant of the MDA-MB-231 cell line that metastasizes to the lung. Tumors were allowed to grow for 29 days to an average size of approximately 350 mm^3 prior to dosing. To validate compound-mediated modulation of the PI3K/mTOR and Wnt signaling pathways, mice were dosed once-a-day with vehicle, Buparlisib (30 mg/kg), WNT974 (3 mg/kg), or the combination for 7 days, with intermittent tumor measurements.

Phospho-AKT = test: pAKT western blot on TMD-231 tumors (PD study); assay type: in vivo, NSG mice; settings: 7 days once-a-day; Buparlisib 30 mg/kg, WNT974 3 mg/kg
Experimental: as §1, with “Japan).” for “Japan). Three TNBC cell lines: MDA-MB-231, HCC70, and HCC1143 were treated with either 0, 1 μM or 10 μM Buparlisib. After 72 hours, protein was isolated and PORCN and pAKT expression was observed.”

TMD-231 lung metastases = test: Lung metastases quantification (Ki67), TMD-231 model; assay type: in vivo, NSG mice; settings: Ki67 positive pixels in lung sections; Buparlisib 30 mg/kg, WNT974 3 mg/kg
Experimental: For the pharmacodynamic studies, NSG mice were implanted with TMD-231 TNBC cells into the mammary fat pad of 24 NSG mice (6 mice per group: Vehicle, Buparlisib, WNT974, Buparlisib+WNT974). The TMD-231 cell line is a variant of the MDA-MB-231 cell line that metastasizes to the lung. Tumors were allowed to grow for 29 days to an average size of approximately 350 mm^3 prior to dosing. To validate compound-mediated modulation of the PI3K/mTOR and Wnt signaling pathways, mice were dosed once-a-day with vehicle, Buparlisib (30 mg/kg), WNT974 (3 mg/kg), or the combination for 7 days, with intermittent tumor measurements. […] To quantify lung metastases, lungs were extracted, fixed in 10% formalin, and processed in paraffin. Five-micrometer sections were H&E stained, deparaffinized, blocked, and stained using primary anti-human Ki67 antibody (DAKO, Carpinteria, Calif.). The Aperio whole slide digital imaging system was used for imaging (Leica, Wetzlar, Germany). Using the Aperio ScanScope CS, 20× images were taken at scan times ranging from 1.5 to 2.25 minutes. The total nuclear labeling index (Ki67) was generated using the Aperio ImageScope standard positive pixel algorithm. The Image Analysis software was used to calculate the percent of positive pixels (brown staining) in one large cross section from each lung.

[3] = In vivo single-dose PK, plasma HPLC-MS/MS; design: species or system NSG mice; settings: for AUC(0-inf) / Cmax / Tmax / half-life / Vd/F: NOD-scid IL2Rgamma-null (NSG), mouse, po; for Vd/F: read-out: Vdss/F; for Cl/F: single dose po
Experimental: For pharmacokinetic studies, NOD-scid IL2Rgamma-null (NSG) mice were obtained from the In Vivo Therapeutics (IVT) Core at the Indiana University School of Medicine and given a single dose of Buparlisib, WNT974, or the combination at pre-established concentrations of 30 mg/kg and 3 mg/kg respectively. This experiment employed 45 NSG mice (n=15 for each group). Plasma was drawn from 3 mice from each group at 0.5, 1, 2, 6, and 24 hours post dosage. Buparlisib and WNT974 were quantified in the plasma using high-performance liquid chromatography-mass spectrometry (HPLC-MS/MS). Pharmacokinetic (PK) parameters for Buparlisib and WNT974 including area under the curve (AUC), area under the moment curve (AUMC), and half-life (t½) were estimated using non-compartmental methods with Excel and WinNonlin v 2.0 (Certara, Princeton, N.J.). The maximum plasma concentration (Cmax) and time of Cmax (tmax) was calculated from the data. The systemic clearance (Cl/F, where F=bioavailability) of each drug was calculated from the dose and AUC0-∝The apparent volume of distribution (Vdss/F) was estimated from the Cl/F and mean residence time. The single-agent pharmacokinetic parameters were compared to the drug combination parameters to determine whether a drug-drug interaction exists.

[4] = Quantification of drug in resected tumors (PD study); assay type: in vivo, NSG mice; settings: tumors resected 1 hour and 7 hours after last dose, day 7; HPLC-MS/MS
[5] = tested on: Wnt pathway genes incl. Porcupine (PORCN); test: RNA-seq of MDA-MB-231 before and after Buparlisib treatment; assay type: cell-based, human; settings: MDA-MB-231, RNA-seq after vs before treatment
Experimental: RNA-sequencing for the Buparlisib treated MDA-MB-231 cell line experiment was performed as follows. To enrich for the non-ribosomal RNA transcriptome, RNA samples were first depleted of ribosomal RNA using the Low Input Ribominus Kit (Life Technologies). ERCC spike-in controls (Pool 1) were introduced for all samples (Life Technologies). RNA libraries were constructed using the Ion Total RNA-Seq Kit for AB Library Builder System (Life Technologies) per manufacturer's instructions. Libraries were barcoded using the IonXpress RNA-Seq Barcode 1-16 Kit (Life Technologies), and libraries were quantified using the Agilent TapeStation 2200 along with the DNA D1K Kit. Libraries were diluted to a concentration of 11 picomolar prior to templating and emulsion PCR using the Ion Template OT2 200 v2 kit along with Ion OneTouch 2 instrument (Life Technologies). Templates were quantified using the IonSphere Quality Control Kit (Life Technologies). Samples were sequenced on an Ion Proton Next-Generation Sequencer using the Ion Proton PI chip and the Ion PI Sequencing 200 v2 kit (Life Technologies). Samples were sequenced using 2 RNA-seq libraries/samples per chip to an average of 30-40 million reads per sample. Reads were mapped to the human genome (hg19) using the STAR algorithm (Dobin et al. Bioinformatics 29, 15-21 (2013)). Aligned BAM files were then imported into Partek Genomics Suite. […]

[6] = known; cited from earlier work
Porcupine = biological target: T1, Porcupine (Homo sapiens, UniProt Q9H237); settings: recently published data; cited from earlier work
T1 sequence (Q9H237 1-461): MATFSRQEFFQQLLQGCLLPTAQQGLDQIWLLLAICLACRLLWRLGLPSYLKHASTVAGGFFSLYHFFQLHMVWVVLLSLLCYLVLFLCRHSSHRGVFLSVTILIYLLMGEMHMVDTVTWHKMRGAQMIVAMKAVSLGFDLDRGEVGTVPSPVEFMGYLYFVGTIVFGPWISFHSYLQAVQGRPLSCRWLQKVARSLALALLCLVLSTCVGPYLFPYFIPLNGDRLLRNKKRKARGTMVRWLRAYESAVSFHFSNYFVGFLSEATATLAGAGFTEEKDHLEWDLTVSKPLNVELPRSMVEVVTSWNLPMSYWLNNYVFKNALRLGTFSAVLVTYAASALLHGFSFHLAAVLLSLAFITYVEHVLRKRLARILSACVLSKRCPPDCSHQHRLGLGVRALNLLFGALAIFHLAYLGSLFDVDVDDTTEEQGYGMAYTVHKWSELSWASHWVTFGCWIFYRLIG

tumor growth = settings: recently published data; cited from earlier work
[7] = drug given alone, Buparlisib 30 mg/Kg, WNT974 3 mg/Kg
[8] = measured drug given in combination with the other, Buparlisib 30 mg/Kg + WNT974 3 mg/Kg

Q: Which results are given for Nc1cc(C(F)(F)F)c(-c2cc(N3CCOCC3)nc(N3CCOCC3)n2)cn1 [Buparlisib, 5-(2,6-di-4-morpholinyl-4-pyrimidinyl)-4-(trifluoromethyl)-2-pyridinamine]?
A: mice survived to the end of the study [1]: 40%; phospho-AKT [2]: potent inhibition; Axin2 RNA expression in tumors (AXIN2 RNA): no significant change; Porcupine protein expression (Porcupine (PORCN)): increase; tumor volume change (in words) (TMD-231 TNBC cells): grew slightly; Inhibition of Phospho-AKT in tumors (Phospho-AKT): observed; lung metastases compared with the control group (TMD-231 lung metastases): small but non-significant decreases; AUC(0-inf) [3, 7]: 16500 ng·h/mL; Cmax [3, 7]: 2300 ng/mL; Tmax [3, 7]: 1 h; half-life [3, 7]: 3 h; Vd/F [3, 7]: 0.15 L; AUC(0-inf) [3, 8]: 15500 ng·h/mL; Cmax [3, 8]: 2850 ng/mL; Tmax [3, 8]: 2 h; half-life [3, 8]: 2.8 h; Vd/F [3, 8]: 0.16 L; Cl/F [3, 7]: 0.034 L/h; Cl/F [3, 8]: 0.035 L/h; drug concentrations in tumor tissue [4]: reaching the tumor; expression of Wnt pathway genes [5]: significant increase; Porcupine (PORCN) gene over-expression after treatment ([5]; preliminary data): approximately 8 fold; toxicity / most common side effect in humans [6]: depression, anxiety, pneumonitis, and liver toxicity

Q: Which “inhibition of its target” value (Porcupine) does the source give for Cc1cc(-c2ncc(CC(=O)Nc3ccc(-c4cnccn4)cn3)cc2C)ccn1 [WNT974, 2-[5-methyl-6-(2-methylpyridin-4-yl)pyridin-3-yl]-N-(5-pyrazin-2-ylpyridin-2-yl)acetamide] here?
A: potent inhibition

Q: What about the “mice survived to the end of the study” value [1] of the same compound?
A: 0%

Q: And the “Axin2 RNA expression in tumors” value (AXIN2 RNA)?
A: decrease

Q: What about the “tumor volume change (in words)” value (TMD-231 TNBC cells) of the same compound?
A: grew slightly

Q: And the “inhibition of tumor growth in vivo” value (tumor growth)?
A: significant inhibition

Q: What about the “Inhibition of Phospho-AKT in tumors” value (Phospho-AKT) of the same compound?
A: not

Q: And the “lung metastases compared with the control group” value (TMD-231 lung metastases)?
A: small but non-significant decreases

Q: What about the AUC(0-inf) [3, 7] of the same compound?
A: 636 ng·h/mL

Q: And the Cmax [3, 7]?
A: 165 ng/mL

Q: And the Tmax [3, 7]?
A: 1 h

Q: What about the half-life [3, 7] of the same compound?
A: 2.1 h

Q: And the Vd/F [3, 7]?
A: 0.24 L

Q: What about the AUC(0-inf) [3, 8] of the same compound?
A: 621 ng·h/mL

Q: What about the Cmax [3, 8] of the same compound?
A: 143 ng/mL

Q: What about the Tmax [3, 8] of the same compound?
A: 1 h

Q: What about the half-life [3, 8] of the same compound?
A: 3 h

Q: What about the Vd/F [3, 8] of the same compound?
A: 0.4 L

Q: And the Cl/F [3, 7]?
A: 0.081 L/h

Q: And the Cl/F [3, 8]?
A: 0.087 L/h

Q: And the “drug concentrations in tumor tissue” value [4]?
A: reaching the tumor

Q: What about the “toxicity / most common side effect in humans” value [6] of the same compound?
A: dysgeusia
